PubChem BioAssay AID1845208 (Molecular Pharmacology Branch, DTP, NCI, 2023)
pIC50: −log10 of the molar value.

System: NCI-H196 SCLC complex tumor spheroid viability
Assay: Anticancer human tumor NCI-H196 cell line growth inhibition;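 also: spheroids exposed to compounds for 7 days before readout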;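 as to viability, T/C: 100% = DMSO vehicle control wells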
Settings: for pIC50: curve of first compound; for viability, T/C: stronger effect = lower value
Excerpt: Multicellular complex tumor spheroid response to DNA repair inhibitors in combination with DNA-damaging drugs
This study explores the anticancer activities of DNA-damaging drugs and inhibitors of DNA damage repair, both as single agents and in combinations. Complex tumor spheroids comprised of malignant cells, endothelial cells and mesenchymal stem cells served as an in vitro model for human solid tumors. This model system incorporates physiologically relevant features and patient-derived or established malignant cell lines with clinically relevant genetic alterations from many tumor types. Twenty-six patient-derived or established malignant cell lines were evaluated representing sarcoma, melanoma, small cell lung cancer (SCLC), non-small cell lung cancer (NSCLC), as well as bladder, ovarian and pancreatic cancers. The concentration ranges selected for each drug and investigational agent were based upon clinically achievable concentrations if the clinical Cmax of the agent was known.
Compounds. The drugs and compounds olaparib (NSC753686), talazoparib (NSC767125), berzosertib (NSC777718), elimusertib (NSC800525), nedisertib (NSC802822), VX-984 (NSC792969), AZD-1390 (NSC803789), temozolomide (NSC362856), topotecan (NSC609699), trabectedin (NSC813783), staurosporine (NSC755774), and gemcitabine (NSC613327) were obtained from the National Cancer Institute (NCI) Developmental Therapeutics Program Chemical Repository. The FDA-approved anticancer drug set is available from the Developmental Therapeutics Program at https://dtp.cancer.gov/organization/dscb/obtaining/available_plates.htm. […] The stock solutions were prepared in dimethyl sulfoxide (DMSO, Sigma-Aldrich, St. Louis, MO, cat. D2650) at 400-fold the tested concentration and stored at -70 degrees C. Prior to their use, the stock solutions were diluted in fresh medium and the final DMSO concentration in the assay was 0.25% (v/v). All drugs and investigational agents were tested over a range starting from a high concentration at or near the clinical Cmax and decreasing in half-log increments. If the clinical Cmax for an agent had not been determined, the highest concentration tested was 10 microM.
Cell Lines. The patient-derived cancer cell (PDC) lines: 156681-154-R-J1-PDC, 283228-195-R-J1-PDC, 287954-098-R-J1-PDC, 292921-168-R-J2-PDC, 349418-098-R-PDC, 425362-245-T-J1-PDC, 556581-035-R-J1-PDC, and BL0293-F563-PDC were received from the NCI Patient-Derived Models Repository (PDMR, https://pdmr.cancer.gov). The established cell lines HS-SY-2 (RRID:CVCL_8719), MPNST, and SYO-1 (RRID:CVCL_7146) were obtained from the Sloan Kettering Institute. The alveolar soft parts sarcoma cell line ASPS-1 (RRID:CVCL_S738) was established at the NCI and grown from internal seed stocks. The following established cell lines were purchased from the American Type Culture Collection (ATCC, Manassas, VA): G-401 (ATCC, cat. CRL-1441, RRID:CVCL_0270), SW982 (ATCC, cat. HTB-93, RRID:CVCL_1734), VA-ES-BJ (ATCC, cat. CRL-2138, RRID:CVCL_1785), NCI-H719 (ATCC, cat. CRL-5837, RRID:CVCL_1582), NCI-H196 (ATCC, cat. CRL-5823, RRID:CVCL_1509), NCI-H841 (ATCC, cat. CRL-5845, RRID:CVCL_1595), NCI-H1618 (ATCC, cat. CRL-5879, RRID:CVCL_1480), NCI-H1876 (ATCC, cat. CRL-5902, RRID:CVCL_1503), DMS 114 (ATCC, cat. CRL-2066; RRID:CVCL_1174), NCI-H211 (ATCC, cat. CRL-5824; RRID:CVCL_1529), and SW 1271 (ATCC, cat. CRL-2177, RRID:CVCL_1716). The small cell lung cancer cell line COR-L88 was purchased from Sigma-Aldrich (cat. 92031917-1VL, RRID:CVCL_1141). The non-small cell lung cancer cell lines NCI-H226 (RRID:CVCL_1544) and NCI-H322M (RRID:CVCL_1557) were established at the NCI and grown from internal seed stocks. Pooled donor human umbilical vein endothelial cells (HUVEC, Lonza, cat. CC-2519) and human mesenchymal stem cells (hMSC, Lonza, cat. PT-2501) were purchased from Lonza (Walkersville, MD).
Cell Culture. All cells were maintained in an incubator at 37 degrees C and 5% CO2 with 95% humidity. […]

[1] = second compound 30 pM, first compound 0.0316 µM
[2] = second compound 30 pM, first compound 0.1 µM
[3] = second compound 30 pM, first compound 0.316 µM
[4] = second compound 30 pM, first compound 1 µM
[5] = second compound 30 pM, first compound 3.16 µM
[6] = second compound 30 pM, first compound 10 µM
[7] = second compound 94.9 pM, first compound 0.0316 µM
[8] = second compound 94.9 pM, first compound 0.1 µM
[9] = second compound 94.9 pM, first compound 0.316 µM
[10] = second compound 94.9 pM, first compound 1 µM
[11] = second compound 94.9 pM, first compound 3.16 µM
[12] = second compound 94.9 pM, first compound 10 µM
[13] = second compound 0.0003 µM, first compound 0.0316 µM
[14] = second compound 0.0003 µM, first compound 0.1 µM
[15] = second compound 0.0003 µM, first compound 0.316 µM
[16] = second compound 0.0003 µM, first compound 1 µM
[17] = second compound 0.0003 µM, first compound 3.16 µM
[18] = second compound 0.0003 µM, first compound 10 µM
[19] = second compound 0.000949 µM, first compound 0.0316 µM
[20] = second compound 0.000949 µM, first compound 0.1 µM
[21] = second compound 0.000949 µM, first compound 0.316 µM
[22] = second compound 0.000949 µM, first compound 1 µM
[23] = second compound 0.000949 µM, first compound 3.16 µM
[24] = second compound 0.000949 µM, first compound 10 µM
[25] = second compound 0.003 µM, first compound 0.0316 µM
[26] = second compound 0.003 µM, first compound 0.1 µM
[27] = second compound 0.003 µM, first compound 0.316 µM
[28] = second compound 0.003 µM, first compound 1 µM
[29] = second compound 0.003 µM, first compound 3.16 µM
[30] = second compound 0.003 µM, first compound 10 µM

Compound COc1ccc([C@@H](O)c2cc(-c3ncnc4cc(N5CCOCC5)ccc34)c(F)cc2Cl)nn1 + COc1cc2c(cc1O)CCNC21CSC2c3c(OC(C)=O)c(C)c4c(c3C(COC1=O)N1C(O)C3Cc5cc(C)c(OC)c(O)c5C(C21)N3C)OCO4 has a pIC50 (second compound 30 pM) of 5.04, a pIC50 (second compound 94.9 pM) of 5.14 and a pIC50 (second compound 0.0003 µM) of 5.53. For the same compound, the pIC50 (second compound 0.000949 µM) was 6.01, the pIC50 (second compound 0.003 µM) was over 7.50 and the viability, T/C [1] was 103%. It also gave a viability, T/C [2] of 94.9%, a viability, T/C [3] of 93.8% and a viability, T/C [4] of 77.8%. The viability, T/C [5] was 62.6%, the viability, T/C [6] was 49% and the viability, T/C [7] was 106%. For the same compound, the viability, T/C [8] was 107%, the viability, T/C [9] was 93.6% and the viability, T/C [10] was 75.4%. The viability, T/C [11] was 60%, the viability, T/C [12] was 46% and the viability, T/C [13] was 99%. It also gave a viability, T/C [14] of 96.7%, a viability, T/C [15] of 91.1% and a viability, T/C [16] of 69.5%. The viability, T/C [17] was 50.2%, the viability, T/C [18] was 32.5% and the viability, T/C [19] was 81.8%. It also gave a viability, T/C [20] of 80.6%, a viability, T/C [21] of 78.1% and a viability, T/C [22] of 45.3%. The viability, T/C [23] was 26.6%, the viability, T/C [24] was 9.62% and the viability, T/C [25] was 8.41%. For the same compound, the viability, T/C [26] was 3.38%, the viability, T/C [27] was 3.43% and the viability, T/C [28] was 0.71%. It also gave a viability, T/C [29] of 0.82% and a viability, T/C [30] of 0.59%.
In the case of CC1COCCN1c1cc(-c2ccnn2C)c2ccnc(-c3ccn[nH]3)c2n1 (stereo not given) + COc1cc2c(cc1O)CCNC21CSC2c3c(OC(C)=O)c(C)c4c(c3C(COC1=O)N1C(O)C3Cc5cc(C)c(OC)c(O)c5C(C21)N3C)OCO4, the pIC50 (second compound 30 pM) was 5.38, the pIC50 (second compound 94.9 pM) was 5.46 and the pIC50 (second compound 0.0003 µM) was 5.60. It also gave a pIC50 (second compound 0.000949 µM) of 6.15, a pIC50 (second compound 0.003 µM) of over 7.50 and a viability, T/C [1] of 90.5%. For the same compound, the viability, T/C [2] was 74.5%, the viability, T/C [3] was 67.2% and the viability, T/C [4] was 56.7%. The viability, T/C [5] was 51.8%, the viability, T/C [6] was 46.3% and the viability, T/C [7] was 89.1%. It also gave a viability, T/C [8] of 73.8%, a viability, T/C [9] of 67% and a viability, T/C [10] of 58%. It also gave a viability, T/C [11] of 50.8%, a viability, T/C [12] of 44.5% and a viability, T/C [13] of 81.8%. For the same compound, the viability, T/C [14] was 67.1%, the viability, T/C [15] was 64% and the viability, T/C [16] was 59.2%. For the same compound, the viability, T/C [17] was 45.9%, the viability, T/C [18] was 42.5% and the viability, T/C [19] was 72.2%. The viability, T/C [20] was 64%, the viability, T/C [21] was 56.3% and the viability, T/C [22] was 51.7%. The viability, T/C [23] was 31.9%, the viability, T/C [24] was 32.6% and the viability, T/C [25] was 9.26%. For the same compound, the viability, T/C [26] was 6.28%, the viability, T/C [27] was 10.1% and the viability, T/C [28] was 3.62%. It also gave a viability, T/C [29] of 0.78% and a viability, T/C [30] of 0.39%.
In the case of O=C(c1cc(Cc2n[nH]c(=O)c3ccccc23)ccc1F)N1CCN(C(=O)C2CC2)CC1 + Cn1nnc2c(C(N)=O)ncn2c1=O, the pIC50 (second compound 1 µM) was under 4.52, the pIC50 (second compound 3.16 µM) was under 4.52 and the pIC50 (second compound 10 µM) was under 4.52. For the same compound, the pIC50 (second compound 31.6 µM) was under 4.52, the pIC50 (second compound 100 µM) was under 4.52 and the viability, T/C (second compound 1 µM, first compound 0.0949 µM) was 102%. The viability, T/C (second compound 1 µM, first compound 0.3 µM) was 102%, the viability, T/C (second compound 1 µM, first compound 0.949 µM) was 93.3% and the viability, T/C (second compound 1 µM, first compound 3 µM) was 89.1%. The viability, T/C (second compound 1 µM, first compound 9.49 µM) was 86.1%, the viability, T/C (second compound 1 µM, first compound 30 µM) was 83.7% and the viability, T/C (second compound 3.16 µM, first compound 0.0949 µM) was 97.7%. The viability, T/C (second compound 3.16 µM, first compound 0.3 µM) was 94.3%, the viability, T/C (second compound 3.16 µM, first compound 0.949 µM) was 104% and the viability, T/C (second compound 3.16 µM, first compound 3 µM) was 98.1%. For the same compound, the viability, T/C (second compound 3.16 µM, first compound 9.49 µM) was 85.5%, the viability, T/C (second compound 3.16 µM, first compound 30 µM) was 79.8% and the viability, T/C (second compound 10 µM, first compound 0.0949 µM) was 99.6%. It also gave a viability, T/C (second compound 10 µM, first compound 0.3 µM) of 97.9%, a viability, T/C (second compound 10 µM, first compound 0.949 µM) of 92.6% and a viability, T/C (second compound 10 µM, first compound 3 µM) of 95.2%. For the same compound, the viability, T/C (second compound 10 µM, first compound 9.49 µM) was 92.4%, the viability, T/C (second compound 10 µM, first compound 30 µM) was 90.8% and the viability, T/C (second compound 31.6 µM, first compound 0.0949 µM) was 101%. It also gave a viability, T/C (second compound 31.6 µM, first compound 0.3 µM) of 101%, a viability, T/C (second compound 31.6 µM, first compound 0.949 µM) of 100% and a viability, T/C (second compound 31.6 µM, first compound 3 µM) of 106%. It also gave a viability, T/C (second compound 31.6 µM, first compound 9.49 µM) of 98.7%, a viability, T/C (second compound 31.6 µM, first compound 30 µM) of 86.8% and a viability, T/C (second compound 100 µM, first compound 0.0949 µM) of 95.6%. For the same compound, the viability, T/C (second compound 100 µM, first compound 0.3 µM) was 96.5%, the viability, T/C (second compound 100 µM, first compound 0.949 µM) was 98.7% and the viability, T/C (second compound 100 µM, first compound 3 µM) was 87.6%. It also gave a viability, T/C (second compound 100 µM, first compound 9.49 µM) of 86.7% and a viability, T/C (second compound 100 µM, first compound 30 µM) of 76.2%.
